Results from patent publication US8512739B2, “Use of low-glycemic sweeteners in food and beverage compositions” (Cargill, Incorporated, priority 2002, dated 2013).

test system: rat intestinal powder; assay: In vitro digestibility assay using rat intestinal powder; type: in vitro ADME; details: in 4 hours
Description: The results provided in this example are derived from in vitro digestibility assays using rat intestinal powder available from Sigma/Aldrich, Saint Louis, Mo., Catalog Number I-1630). […] Free glucose concentration in the reaction mixture was analyzed over time by the HPLC method described above.

Molecule	digested
OC[C@H]1O[C@H](O[C@H]2[C@H](O)[C@@H](O)C(O)O[C@@H]2CO)[C@H](O)[C@@H](O)[C@@H]1O (mixture of isomers) [Maltose, reference compound]	88%

test system: Enzyme from the LM NRRL-B-21297 strain; assay: Suitability of acceptors: oligosaccharide formation from sucrose and acceptor; type: biochemical, Leuconostoc mesenteroides; details: 0.4% by weight each of sucrose and acceptor, pH 6, 2 hours at 37° C.; DP3-DP7 minus starting material
Description: Enzyme from the LM NRRL-B-21297 strain was tested to determine the suitability of various acceptors. Enzyme was prepared using the methods described herein.
In determining the suitability of the preparation of the sucrose/acceptor products, 0.4% by weight of each sucrose and acceptor were mixed with enzyme solution in 0.01 M sodium gluconate buffer, pH 6, and the reaction proceeded for 2 hours at 37° C.
The carbohydrate profiles of products generated by the enzyme reactions with the blends of sucrose and syrups and syrup solids herein, were analyzed by high performance liquid chromatography (HPLC) using two (2) Bio-Rad Aminex HPX42A carbohydrate columns (300 mm×7.8 mm) available from Bio-Rad, Hercules, Calif., in succession, with water as the eluate at 0.2 ml/min, at a temperature of 65° C.
The reaction rate was estimated based on the amount of oligosaccharides generated from each acceptor and normalized against the fructose concentration in each reaction. The results are reported below in Table 2.0. The values reported for oligosaccharides to fructose are for DP3-DP7 minus starting material.

Molecule	Weight Ratio of Oligosaccharide to Fructose
OC[C@H]1O[C@H](O[C@H]2[C@H](O)[C@@H](O)C(O)O[C@@H]2CO)[C@H](O)[C@@H](O)[C@@H]1O (mixture of isomers) [Maltose, reference compound]	2.02
OC[C@H]1O[C@H](OC[C@H]2O[C@H](O[C@H]3[C@H](O)[C@@H](O)C(O)O[C@@H]3CO)[C@H](O)[C@@H](O)[C@@H]2O)[C@H](O)[C@@H](O)[C@@H]1O (stereo partly drawn) [Panose]	1.56
OC[C@H]1O[C@H](OC[C@H]2OC(O)[C@H](O)[C@@H](O)[C@@H]2O)[C@H](O)[C@@H](O)[C@@H]1O (stereo partly drawn) [Isomaltose]	0.93
Maltotriose	0.53
OC[C@H]1O[C@H](O[C@H]2[C@H](O)[C@@H](O)[C@@H](O[C@H]3[C@H](O)[C@@H](O)[C@@H](O[C@H]4[C@H](O)[C@@H](O)C(O)O[C@@H]4CO)O[C@@H]3CO)O[C@@H]2CO)[C@H](O)[C@@H](O)[C@@H]1O (stereo partly drawn) [Maltotetrose]	0.38

same assay, conditions: compared with the acceptors of Table 2.0, two hour reaction time

Molecule	suitability as acceptor
O=C[C@@H](O)[C@H](O)[C@H](O)CO [arabinose]	not as effective acceptors
O[C@H]1[C@H](O)[C@@H](O)[C@H](O)[C@@H](O)[C@H]1O [myo-inositol]	not as effective acceptors
O=C[C@H](O)[C@@H](O)[C@H](O)CO [xylose]	not as effective acceptors
